Patent publication US12351836B2, “Microhomology mediated repair of microduplication gene mutations” (UNIVERSITY OF MASSACHUSETTS, priority 2018, dated 2025)

Target: PARP-1 (Homo sapiens, UniProt P09874)
Assay: PARP-1 inhibition by rucaparib: MMEJ-based repair at the HPS1 locus in HPS1 B-LCL cells treated with SpyCas9 RNP
Type: cell-based
Excerpt: To investigate whether nuclease-mediated collapse of a microduplication occurs via the MMEJ pathway, a DNA repair factor (PARP-1) that regulates DSB flux through this pathway was inhibited. PARP-1 influences the repair of a DSB through resection-dependent DNA repair pathways, such as MMEJ^3,16, which are in competition with the non-homologous end joining pathway (NHEJ) for DSB repair^17. Inhibition of the catalytic activity of PARP-1 by rucaparib reduces DSB flux through the MMEJ pathway, resulting in a decrease in microhomology-based deletion products in the resulting repair events^18. See, FIG. 18A. Patient-derived HPS1 B-LCL cells were treated with 10 µM or 20 μM rucaparib before and after treatment with SpyCas9 RNP to suppress MMEJ-mediated repair of DSBs. See, FIG. 12A. […] See, FIG. 12B. […] See, FIG. 12B-12D. […] See, FIG. 18.
For the PARP-1 inhibition experiments, 300,000 HPS1 patient-derived B-LCL cells were treated with 10 μM or 20 μM rucaparib camsylate (Sigma-Aldrich PZ0036) in standard growth medium for 24 h. Treated cells were electroporated with SpyCas9 RNPs following previously described protocol. Following another 24 h incubation in rucaparib-containing medium, cells were resuspended in PARP-1 inhibitor-free medium and harvested for analysis after 7 days.
The construction of the UMI-based library used a linear amplification step to incorporate UMIs within the amplicons from the target locus^15. HPS1 B-LCL cells and HEK293 Ts were harvested following nuclease treatment for genomic DNA extraction using the GenElute Mammalian Genomic DNA Miniprep Kit (Sigma GIN350).
The analysis of the UMI-tagged deep sequencing reads was adapted from a previous protocol^15. Initially, BWA (version 0.7.5) and SAMtools (version 0.1.19) were used to align each group of filtered merged-read pairs to a corresponding reference sequence, ignoring the unique molecular barcodes. Next, a custom Python and PySAM script was used to process mapped reads into counts of UMI-labelled reads for each target. The mapped reads were filtered by requiring a mapping value (MAPQ) larger than 30. […]

Chain of PARP-1 (P09874 whole entry): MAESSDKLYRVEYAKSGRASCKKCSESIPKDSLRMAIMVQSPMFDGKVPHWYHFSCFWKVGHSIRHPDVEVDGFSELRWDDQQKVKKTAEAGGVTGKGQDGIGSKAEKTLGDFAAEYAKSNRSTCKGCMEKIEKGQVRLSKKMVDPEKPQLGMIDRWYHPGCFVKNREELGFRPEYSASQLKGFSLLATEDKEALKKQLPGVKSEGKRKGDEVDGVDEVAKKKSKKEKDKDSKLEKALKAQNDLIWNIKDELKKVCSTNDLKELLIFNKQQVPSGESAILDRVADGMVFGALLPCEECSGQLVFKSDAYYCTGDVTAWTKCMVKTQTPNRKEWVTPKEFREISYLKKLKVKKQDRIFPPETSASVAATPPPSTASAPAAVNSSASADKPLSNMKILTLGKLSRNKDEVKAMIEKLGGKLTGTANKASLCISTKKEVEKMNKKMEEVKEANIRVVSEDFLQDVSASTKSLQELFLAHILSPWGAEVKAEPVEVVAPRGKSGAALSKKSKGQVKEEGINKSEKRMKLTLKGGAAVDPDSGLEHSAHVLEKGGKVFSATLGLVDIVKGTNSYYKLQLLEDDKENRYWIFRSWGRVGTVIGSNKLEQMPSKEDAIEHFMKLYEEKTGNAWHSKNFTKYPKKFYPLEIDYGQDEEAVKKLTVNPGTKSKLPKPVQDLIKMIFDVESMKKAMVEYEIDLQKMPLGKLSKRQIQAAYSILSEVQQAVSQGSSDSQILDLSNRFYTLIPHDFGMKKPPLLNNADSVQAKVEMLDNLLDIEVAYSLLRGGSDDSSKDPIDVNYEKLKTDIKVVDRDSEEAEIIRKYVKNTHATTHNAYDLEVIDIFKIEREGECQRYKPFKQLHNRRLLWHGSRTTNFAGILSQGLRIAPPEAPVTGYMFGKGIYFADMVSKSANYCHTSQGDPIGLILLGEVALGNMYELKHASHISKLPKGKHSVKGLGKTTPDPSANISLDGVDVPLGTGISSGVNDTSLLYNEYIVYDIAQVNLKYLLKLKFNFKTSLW

16-bp deletion product (10 μM rucaparib 24 h before and after SpyCas9 RNP): around 15% | 16-bp deletion product (20 μM rucaparib 24 h before and after SpyCas9 RNP): ~6% | editing rates at the HPS1 locus upon rucaparib treatment (10 or 20 μM rucaparib): overall reduction in editing rates
SMILES: CNCc1ccc(-c2[nH]c3cc(F)cc4c3c2CCNC4=O)cc1 [rucaparib, rucaparib camsylate]
